Test [1] relates to HT29 human colon cancer cells. Nature of the test: Cell proliferation (MTT) assay, HT29 cells. The class given is cell-based. As to conditions: MTT, 24 hour incubation period. As for the experimental part:
6.1 Cell Proliferation (MTT) Assay Single cell suspensions of viable trypsinised cells were seeded into 96-well tissue culture plates at a density of 2×10^3 cells per well in a volume of 100 μl of a suitable culture media supplemented with heat inactivated foetal calf serum (FCS) (e.g., Dulbecco's Modified Eagles Medium (DMEM), with 10% v/v FCS, 1% L-glutamine, 2% (v/v) Hepes, and antibiotics). A set of triplicate wells was prepared for each concentration of the peptide dendrimer being tested. Additional sample wells containing untreated cells or media alone were set up in each treatment plate and processed in parallel as reference controls. A zero-time plate of untreated cells and media-alone wells was simultaneously prepared and an MTT assay carried out on this plate at the time of addition of the kinase inhibitor (i.e., polypeptide or dendrimer) to treatment plates. All plates were cultured for 24 hours before addition of the test dendrimer.
To prepare the MTT solution 100 mg of MTT (3-(4,5-dimethylthiazolyl-2)-2,5-diphenyltetrazolium bromide) (Cat #. M-128, Sigma, St Louis Mo.), is mixed with 20 ml of PBS at pH 7.4. The resulting solution is filter sterilized (0.2 μM syringe filter) and stored at 4° C. protected from light until use. MTT substrate is cleaved in growing cells to yield a water insoluble salt. After solubilisation of the salt crystals, a coloured product is produced the measurement of which allows quantitation of the proliferative activity of the cultured cells.
Appropriate concentrations of the kinase inhibitor were prepared by dilution of freshly prepared sterile 1 mM stock solutions into cell culture media to give a final well volume of 200 μl containing 10% v/v FCS. The zero-plate was processed by addition of MTT at this time. Cell culture was continued for a further 24 or 48 hours before addition of 20 μl of MTT in PBS (5 mg/ml, 0.2 um filter sterilised). The MTT cell proliferation assay measures cell proliferation rate and, in instances where cell viability is compromised, the assay indicates a comparative reduction in cell viability. After a 3 hour incubation in the presence of MTT (5% CO2 in air at 37° C.), plates were centrifuged at 450 g for 5 minutes, supernatant was removed by gentle suction and precipitated tetrazolium salt resuspended into 150 μl DMSO:glycine (0.1M glycine, 0.1M NaCl pH 10.5) (6:1 v/v) solution. Plates were gently vortexed to complete solubilisation of crystalline material and absorbance was read at 550 nm using a microplate reader. Sample data were processed to determine the comparative growth of treated samples relative to untreated controls.
HT29 cells were cultured for 48 hours in the presence of selected dendrimers and proliferation of the cells was assessed by MTT assay essentially as described in Example 6.1. The results were calculated as percentage proliferation of control cells (not treated with dendrimer).

Test [2] concerns ERK1/2 activation in HT29 cells. Description: Phospho-ERK1/2 ELISA upon serum (FCS) stimulation, HT29 cells. The class given is cell-based, human. As for the experimental part: HT29 cells were harvested using 0.5% trypsin EDTA (Invitrogen) and 5000 cells in 200 μL media were plated into each well of a clear NUNC tissue culture treated 96 well plate (NUNC). Cells were seeded in DMEM media (Invitrogen) supplemented with 10% (v/v) heat inactivated foetal calf serum (FCS, Invitrogen), 1% (v/v) L-glutamine (Invitrogen) and 2% (v/v) 1M Hepes buffer solution (Invitrogen). Cells were then incubated overnight at 37° C.
The following day, the growth medium was replaced with 100 μL of DMEM supplemented with 1% (v/v) L-glutamine and 2% (v/v) 1M HEPES buffer solution (Invitrogen) (serum free medium, SFM) and plates incubated for a further 24 hours at 37° C.
The dendrimers were re-constituted in SFM and the desired concentration was added to the plate in 100 μL SFM to make the total volume of each well 200 μL. The control wells (minus peptide) had only SFM added. The assay plate was then incubated at 37° C. for 4 hours. In studies in which cells were subjected to stimulation by serum, 22 μL FCS (10% v/v final concentration) was added to wells for the final 10 minutes at 37° C. SFM only (22 μL) was added to control wells.
Phospho-ERK levels were evaluated by ELISA utilising an Active Motif FACE ERK1/2 ELISA kit (Australian Biosearch, WA, Australia) as per the manufacturers instructions. Briefly, media was replaced and cells fixed with 4% formaldehyde in PBS, and after a one hour incubation with antibody blocking buffer (supplied), the primary phospho-ERK antibody was added and the plate incubated overnight at 4° C. Antibody dilution buffer only was added to control test wells containing no primary antibody. The following day, HRP-conjugated secondary antibody was added to all wells for one hour before plates were developed and the absorbance measured at 450 nm using a Labsystems Multiskan EX microplate reader (Labsystems, Thermo Labsystems, UK).
(ELISA stands for enzyme-linked immunosorbent assay.)

Test [3] deals with ERK1/2 activity in skin fibroblast cells. Description: Phospho-ERK1/2 upon FCS stimulation, skin fibroblast cells. In kind it is cell-based. The following applies: compared to HT29 cells, data not shown.

We go through one compound from patent publication US20120277161A1, “INHIBITION OF MULTIPLE CELL ACTIVATION PATHWAYS” (INTER-K PTY LIMITED, priority 2009, published 2012).

Entries after “also recorded” stand apart in the source; their conditions may differ.

Regarding `CC(C)C[C@H](NC(=O)[C@@H]1CCCN1C(=O)[C@H](CC(N)=O)NC(=O)[C@H](CCCCN)NC(=O)[C@H](C)NC(=O)[C@H](CCCCN)NC(=O)[C@H](CO)NC(=O)[C@@H](N)CCCNC(=N)N)C(=O)N[C@@H](Cc1ccc(O)cc1)C(=O)N[C@@H](CCCNC(=N)N)C(=O)NCCCC[C@H](NC(=O)[C@H](CCCNC(=N)N)NC(=O)[C@H](Cc1ccc(O)cc1)NC(=O)[C@H](CC(C)C)NC(=O)[C@@H]1CCCN1C(=O)[C@H](CC(N)=O)NC(=O)[C@H](CCCCN)NC(=O)[C@H](C)NC(=O)[C@H](CCCCN)NC(=O)[C@H](CO)NC(=O)[C@@H](N)CCCNC(=N)N)C(=O)NCCCC[C@H](NC(=O)[C@H](CCCCNC(=O)[C@H](CCCNC(=N)N)NC(=O)[C@H](Cc1ccc(O)cc1)NC(=O)[C@H](CC(C)C)NC(=O)[C@@H]1CCCN1C(=O)[C@H](CC(N)=O)NC(=O)[C@H](CCCCN)NC(=O)[C@H](C)NC(=O)[C@H](CCCCN)NC(=O)[C@H](CO)NC(=O)[C@@H](N)CCCNC(=N)N)NC(=O)[C@H](CCCNC(=N)N)NC(=O)[C@H](Cc1ccc(O)cc1)NC(=O)[C@H](CC(C)C)NC(=O)[C@@H]1CCCN1C(=O)[C@H](CC(N)=O)NC(=O)[C@H](CCCCN)NC(=O)[C@H](C)NC(=O)[C@H](CCCCN)NC(=O)[C@H](CO)NC(=O)[C@@H](N)CCCNC(=N)N)C(=O)NCCCC[C@H](NC(=O)[C@H](CCCCNC(=O)[C@H](CCCCNC(=O)[C@H](CCCNC(=N)N)NC(=O)[C@H](Cc1ccc(O)cc1)NC(=O)[C@H](CC(C)C)NC(=O)[C@@H]1CCCN1C(=O)[C@H](CC(N)=O)NC(=O)[C@H](CCCCN)NC(=O)[C@H](C)NC(=O)[C@H](CCCCN)NC(=O)[C@H](CO)NC(=O)[C@@H](N)CCCNC(=N)N)NC(=O)[C@H](CCCNC(=N)N)NC(=O)[C@H](Cc1ccc(O)cc1)NC(=O)[C@H](CC(C)C)NC(=O)[C@@H]1CCCN1C(=O)[C@H](CC(N)=O)NC(=O)[C@H](CCCCN)NC(=O)[C@H](C)NC(=O)[C@H](CCCCN)NC(=O)[C@H](CO)NC(=O)[C@@H](N)CCCNC(=N)N)NC(=O)[C@H](CCCCNC(=O)[C@H](CCCNC(=N)N)NC(=O)[C@H](Cc1ccc(O)cc1)NC(=O)[C@H](CC(C)C)NC(=O)[C@@H]1CCCN1C(=O)[C@H](CC(N)=O)NC(=O)[C@H](CCCCN)NC(=O)[C@H](C)NC(=O)[C@H](CCCCN)NC(=O)[C@H](CO)NC(=O)[C@@H](N)CCCNC(=N)N)NC(=O)[C@H](CCCNC(=N)N)NC(=O)[C@H](Cc1ccc(O)cc1)NC(=O)[C@H](CC(C)C)NC(=O)[C@@H]1CCCN1C(=O)[C@H](CC(N)=O)NC(=O)[C@H](CCCCN)NC(=O)[C@H](C)NC(=O)[C@H](CCCCN)NC(=O)[C@H](CO)NC(=O)[C@@H](N)CCCNC(=N)N)C(=O)NCCC(N)=O` [Dend 8-10(4)], the “inhibition of proliferation of HT29 colon cancer cells” value in test [1] is “substantially more effective at inhibiting cell growth/proliferation”. Moreover, the “greater inhibition of activated phospho-ERK 1/2 than the closest test agent (TAT-G RSKAKNPLYR)” value in test [2] (5 μM, 1 hour, FCS stimulated HT29 cells) is “at least 30%”. Also, the “inhibition of activated phospho-ERK1/2” value in test [2] (5 μM, 4 hours, HT29 cells, data not shown) is given as “approx. 95%”. Besides, the “ERK1/2 activation (phospho-ERK1/2 levels) upon serum (FCS) stimulation, HT29 cells” value in test [2] (exposure to dendrimer for 4 hours prior to FCS) is “abolished ERK1/2 activation in a dose-dependent manner; also recorded: significantly reduced”. Moreover, the “inhibition of ERK1/2 activity upon FCS stimulation, skin fibroblast cells” value in test [3] is reported as “much less inhibition”.
